Where “and” joins values, the source holds several entries; their conditions need not be identical. Equal entries are not always repeated. Where two headings read alike, the source gives them in different places.
Experiments:
VPAC1 (VIP1) = molecular target: T1, VPAC1 (VIP1) (Homo sapiens, UniProt P32241); assay: BioPrint panel: VPAC1 (VIP1) (h) (agonist); type: binding; settings: 1 micromolar, read-out: percentage of inhibition of activity
T1 construct: purchased Eurofins Pharma Discovery Services (KinaseProfiler; Cerep BioPrint panel)
Text: (§1) Supplement pone.0189247.s004.xlsx, sheet "Bioprint Selectivity Panel" | column: %

neutral endopeptidase = molecular target: T2, neutral endopeptidase (Homo sapiens, UniProt P08473); assay: BioPrint panel: neutral endopeptidase (h); type: biochemical; settings: 1 micromolar, read-out: percentage of inhibition of activity
T2 construct: purchased Eurofins Pharma Discovery Services (KinaseProfiler; Cerep BioPrint panel)
Text: as §1

alpha 2A = molecular target: T3, alpha 2A (Homo sapiens, UniProt P08913); assay: BioPrint panel: alpha 2A (h) (antagonist); type: binding; settings: 1 micromolar, read-out: percentage of inhibition of activity
T3 construct: purchased Eurofins Pharma Discovery Services (KinaseProfiler; Cerep BioPrint panel)
Text: as §1

alpha 1B = molecular target: T4, alpha 1B (Homo sapiens, UniProt P35368); assay: BioPrint panel: alpha 1B (h) (antagonist); type: binding; settings: 1 micromolar, read-out: percentage of inhibition of activity
T4 construct: purchased Eurofins Pharma Discovery Services (KinaseProfiler; Cerep BioPrint panel)
T4 sequence (P35368 whole entry): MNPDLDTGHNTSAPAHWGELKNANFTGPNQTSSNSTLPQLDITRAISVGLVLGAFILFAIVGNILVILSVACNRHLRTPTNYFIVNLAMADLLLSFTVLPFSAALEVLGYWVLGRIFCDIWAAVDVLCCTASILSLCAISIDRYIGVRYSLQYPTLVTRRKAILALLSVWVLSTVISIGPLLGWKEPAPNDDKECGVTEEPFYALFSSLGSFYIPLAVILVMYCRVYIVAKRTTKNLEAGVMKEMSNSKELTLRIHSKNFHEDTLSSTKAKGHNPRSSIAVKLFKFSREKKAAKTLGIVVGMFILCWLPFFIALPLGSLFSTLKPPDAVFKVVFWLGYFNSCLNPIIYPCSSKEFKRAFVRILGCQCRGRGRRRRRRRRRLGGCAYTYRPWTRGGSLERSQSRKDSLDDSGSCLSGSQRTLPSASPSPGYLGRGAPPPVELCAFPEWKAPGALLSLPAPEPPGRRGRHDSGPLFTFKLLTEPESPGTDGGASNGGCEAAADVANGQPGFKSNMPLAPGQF
Text: as §1

5-HT1D = molecular target: T5, 5-HT1D (Rattus norvegicus, UniProt P28565); assay: BioPrint panel: 5-HT1D (agonist); type: binding; settings: 1 micromolar, read-out: percentage of inhibition of activity
T5 construct: purchased Eurofins Pharma Discovery Services (KinaseProfiler; Cerep BioPrint panel)
Text: as §1

ETB = molecular target: T6, ETB (Homo sapiens, UniProt P24530); assay: BioPrint panel: ETB (h) (agonist); type: binding; settings: 1 micromolar, read-out: percentage of inhibition of activity
T6 construct: purchased Eurofins Pharma Discovery Services (KinaseProfiler; Cerep BioPrint panel)
Text: as §1

EP2 = molecular target: T7, EP2 (Homo sapiens, UniProt P43116); assay: BioPrint panel: EP2 (h) (agonist); type: binding; settings: 1 micromolar, read-out: percentage of inhibition of activity
T7 construct: purchased Eurofins Pharma Discovery Services (KinaseProfiler; Cerep BioPrint panel)
T7 sequence (P43116 whole entry): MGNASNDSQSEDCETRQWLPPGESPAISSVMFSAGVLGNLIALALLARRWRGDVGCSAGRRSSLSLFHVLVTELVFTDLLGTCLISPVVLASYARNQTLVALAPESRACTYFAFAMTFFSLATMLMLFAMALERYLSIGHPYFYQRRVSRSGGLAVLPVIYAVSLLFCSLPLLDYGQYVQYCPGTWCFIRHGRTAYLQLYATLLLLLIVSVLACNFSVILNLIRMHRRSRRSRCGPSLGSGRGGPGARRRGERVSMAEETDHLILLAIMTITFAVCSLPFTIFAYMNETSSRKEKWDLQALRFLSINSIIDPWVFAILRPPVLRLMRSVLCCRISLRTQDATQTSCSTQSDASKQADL
Text: as §1

ACE = molecular target: T8, ACE (Homo sapiens, UniProt P12821); assay: BioPrint panel: ACE (h); type: biochemical; settings: 1 micromolar
T8 construct: purchased Eurofins Pharma Discovery Services (KinaseProfiler; Cerep BioPrint panel)
Text: as §1

A1 = molecular target: T9, A1 (Homo sapiens, UniProt P30542); assay: BioPrint panel: A1 (h) (agonist); type: binding; settings: 1 micromolar, read-out: percentage of inhibition of activity
T9 construct: purchased Eurofins Pharma Discovery Services (KinaseProfiler; Cerep BioPrint panel)
T9 sequence (P30542 whole entry): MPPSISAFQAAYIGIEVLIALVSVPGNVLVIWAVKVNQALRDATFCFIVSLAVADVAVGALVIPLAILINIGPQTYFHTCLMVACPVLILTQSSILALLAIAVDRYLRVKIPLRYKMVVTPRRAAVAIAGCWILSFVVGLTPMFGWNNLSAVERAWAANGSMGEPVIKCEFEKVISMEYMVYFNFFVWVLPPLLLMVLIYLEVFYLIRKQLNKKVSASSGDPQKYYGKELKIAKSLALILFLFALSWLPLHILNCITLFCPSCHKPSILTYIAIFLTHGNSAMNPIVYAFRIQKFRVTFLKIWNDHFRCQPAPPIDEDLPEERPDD
Text: as §1

UT = molecular target: T10, UT (Homo sapiens, UniProt Q9UKP6); assay: BioPrint panel: UT (h) (agonist); type: binding; settings: 1 micromolar, read-out: percentage of inhibition of activity
T10 construct: purchased Eurofins Pharma Discovery Services (KinaseProfiler; Cerep BioPrint panel)
Text: as §1

alpha 1A = molecular target: T11, alpha 1A (Homo sapiens, UniProt P35348); assay: BioPrint panel: alpha 1A (h) (antagonist); type: binding; settings: 1 micromolar, read-out: percentage of inhibition of activity
T11 construct: purchased Eurofins Pharma Discovery Services (KinaseProfiler; Cerep BioPrint panel)
Text: as §1

[1] = tested on: human primary cell culture and co-culture systems; assay: BioMAP Diversity PLUS phenotypic profiling; type: cell-based
Text: The concept of the BioMAP® Diversity PLUS™ Platform™ (DiscoverX) has been previously described. The platform is comprised of 12 specific combinations of human primary cell culture and co-culture systems stimulated with a range of physiological and disease relevant stimuli (S2 Table). The resulting activities define a bioactivity fingerprint that was used to search for similar patterns of biological responses across the BioMAP® reference database of >3,000 compounds, biologics, approved drugs and experimental agents. Compound 4 was tested at 0.111 μM, 0.333 μM, 1 μM and 3 μM concentrations.

GABAB(1b) = molecular target: T12, GABAB(1b) (Homo sapiens, UniProt Q9UBS5); assay: BioPrint panel: GABAB(1b) (h) (antagonist); type: binding; settings: 1 micromolar, read-out: percentage of inhibition of activity
T12 construct: purchased Eurofins Pharma Discovery Services (KinaseProfiler; Cerep BioPrint panel)
T12 sequence (Q9UBS5 1-844 isoform Q9UBS5-2): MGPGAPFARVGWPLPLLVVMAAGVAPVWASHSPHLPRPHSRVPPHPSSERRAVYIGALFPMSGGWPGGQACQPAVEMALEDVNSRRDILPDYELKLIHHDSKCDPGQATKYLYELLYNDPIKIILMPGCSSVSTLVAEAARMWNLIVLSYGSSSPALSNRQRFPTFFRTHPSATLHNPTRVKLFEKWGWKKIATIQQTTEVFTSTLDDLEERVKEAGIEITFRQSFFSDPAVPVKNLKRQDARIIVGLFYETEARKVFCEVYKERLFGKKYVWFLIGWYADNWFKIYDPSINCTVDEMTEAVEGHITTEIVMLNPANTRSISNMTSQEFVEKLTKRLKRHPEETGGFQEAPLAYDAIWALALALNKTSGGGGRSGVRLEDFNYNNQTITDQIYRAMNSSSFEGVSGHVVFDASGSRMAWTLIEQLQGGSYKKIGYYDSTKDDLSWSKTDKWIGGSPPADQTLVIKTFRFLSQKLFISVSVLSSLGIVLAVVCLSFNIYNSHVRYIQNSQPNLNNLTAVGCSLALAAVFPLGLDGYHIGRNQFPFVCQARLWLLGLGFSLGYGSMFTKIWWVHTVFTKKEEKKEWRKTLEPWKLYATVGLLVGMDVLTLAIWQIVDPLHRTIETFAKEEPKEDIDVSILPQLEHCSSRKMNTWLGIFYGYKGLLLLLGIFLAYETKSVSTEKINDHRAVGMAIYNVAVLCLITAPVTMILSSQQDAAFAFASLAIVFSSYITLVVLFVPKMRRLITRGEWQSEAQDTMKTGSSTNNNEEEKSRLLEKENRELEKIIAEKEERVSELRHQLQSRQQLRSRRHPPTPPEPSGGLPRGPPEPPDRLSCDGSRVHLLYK
Text: as §1

PDE5 = molecular target: T13, PDE5 (Homo sapiens, UniProt O76074); assay: BioPrint panel: PDE5; type: biochemical
T13 construct: Eurofins Pharma Discovery Services (contract assay service)
Description: General selectivity profiling was performed at Eurofins Pharma Discovery Services using the BioPrint® panel and reference database. The panel included 104 binding assays (non-peptide, peptide and nuclear receptors, ion channels and amine transporters) and 41 cell based and enzyme assays (including 10 kinases, 9 proteases and 5 phosphodiesterases) (S4 Table). More than 70% were human targets. Compound 4 was tested at a concentration of 1 μM in duplicate (10 μM for P-gp and CYP enzymes). The resulting bioactivity fingerprint was compared with a database of >2,500 BioPrint marketed drugs and reference compounds. IC50 values for selected activities were further characterized at 8 concentrations in duplicate.

IRK (InsR) = molecular target: T14, IRK (InsR) (Homo sapiens, UniProt P06213); assay: BioPrint panel: IRK (h) (InsR); type: biochemical; settings: 1 micromolar, read-out: percentage of inhibition of activity
T14 construct: purchased Eurofins Pharma Discovery Services (KinaseProfiler; Cerep BioPrint panel)
Text: as §1

D3 = molecular target: T15, D3 (Homo sapiens, UniProt P35462); assay: BioPrint panel: D3 (h) (antagonist); type: binding; settings: 1 micromolar, read-out: percentage of inhibition of activity
T15 construct: purchased Eurofins Pharma Discovery Services (KinaseProfiler; Cerep BioPrint panel)
T15 sequence (P35462 whole entry): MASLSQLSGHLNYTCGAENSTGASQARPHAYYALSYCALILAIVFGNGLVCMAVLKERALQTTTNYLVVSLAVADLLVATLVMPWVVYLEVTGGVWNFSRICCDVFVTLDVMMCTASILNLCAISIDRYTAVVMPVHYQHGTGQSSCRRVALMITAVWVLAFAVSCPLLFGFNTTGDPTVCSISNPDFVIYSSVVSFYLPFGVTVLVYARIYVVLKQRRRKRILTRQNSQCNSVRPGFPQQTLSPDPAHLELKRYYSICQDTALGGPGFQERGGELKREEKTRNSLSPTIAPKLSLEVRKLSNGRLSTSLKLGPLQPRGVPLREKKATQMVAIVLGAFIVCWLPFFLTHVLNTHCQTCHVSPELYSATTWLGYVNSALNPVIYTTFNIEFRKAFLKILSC
Text: as §1

caspase-3 = molecular target: T16, caspase-3 (Homo sapiens, UniProt P42574); assay: BioPrint panel: caspase-3 (h); type: biochemical; settings: 1 micromolar, read-out: percentage of inhibition of activity
T16 construct: purchased Eurofins Pharma Discovery Services (KinaseProfiler; Cerep BioPrint panel)
Text: as §1

inducible NOS = molecular target: T17, inducible NOS (Mus musculus, UniProt P29477); assay: BioPrint panel: inducible NOS; type: biochemical; settings: 1 micromolar, read-out: percentage of inhibition of activity
T17 construct: purchased Eurofins Pharma Discovery Services (KinaseProfiler; Cerep BioPrint panel)
Text: as §1

CCK1 (CCKA) = molecular target: T18, CCK1 (CCKA) (Homo sapiens, UniProt P32238); assay: BioPrint panel: CCK1 (CCKA) (h) (agonist); type: binding; settings: 1 micromolar, read-out: percentage of inhibition of activity
T18 construct: purchased Eurofins Pharma Discovery Services (KinaseProfiler; Cerep BioPrint panel)
T18 sequence (P32238 whole entry): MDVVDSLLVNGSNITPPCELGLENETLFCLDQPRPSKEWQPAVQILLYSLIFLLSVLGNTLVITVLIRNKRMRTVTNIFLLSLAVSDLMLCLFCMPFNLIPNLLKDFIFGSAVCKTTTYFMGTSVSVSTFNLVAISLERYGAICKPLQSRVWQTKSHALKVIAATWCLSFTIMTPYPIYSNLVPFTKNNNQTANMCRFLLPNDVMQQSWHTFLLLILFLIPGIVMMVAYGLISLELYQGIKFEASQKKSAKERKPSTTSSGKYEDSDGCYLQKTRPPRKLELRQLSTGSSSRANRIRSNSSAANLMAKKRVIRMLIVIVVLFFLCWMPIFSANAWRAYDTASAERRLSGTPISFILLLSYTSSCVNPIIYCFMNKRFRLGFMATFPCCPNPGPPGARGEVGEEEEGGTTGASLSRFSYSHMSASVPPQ
Text: as §1

p38alpha kinase = molecular target: T19, p38alpha kinase (Homo sapiens, UniProt Q16539); assay: BioPrint panel: p38alpha kinase (h); type: biochemical; settings: 1 micromolar, read-out: percentage of inhibition of activity
T19 construct: purchased Eurofins Pharma Discovery Services (KinaseProfiler; Cerep BioPrint panel)
Text: as §1

N neuronal a4 b2 = molecular target: T20, N neuronal a4 b2 (Homo sapiens, UniProt P17787+P43681); assay: BioPrint panel: N neuronal a4 b2 (h) (agonist); type: binding; settings: 1 micromolar, read-out: percentage of inhibition of activity
T20 construct: purchased Eurofins Pharma Discovery Services (KinaseProfiler; Cerep BioPrint panel)
Text: as §1

MC4 = molecular target: T21, MC4 (Homo sapiens, UniProt P32245); assay: BioPrint panel: MC4 (h) (agonist); type: binding; settings: 1 micromolar, read-out: percentage of inhibition of activity
T21 construct: purchased Eurofins Pharma Discovery Services (KinaseProfiler; Cerep BioPrint panel)
T21 sequence (P32245 whole entry): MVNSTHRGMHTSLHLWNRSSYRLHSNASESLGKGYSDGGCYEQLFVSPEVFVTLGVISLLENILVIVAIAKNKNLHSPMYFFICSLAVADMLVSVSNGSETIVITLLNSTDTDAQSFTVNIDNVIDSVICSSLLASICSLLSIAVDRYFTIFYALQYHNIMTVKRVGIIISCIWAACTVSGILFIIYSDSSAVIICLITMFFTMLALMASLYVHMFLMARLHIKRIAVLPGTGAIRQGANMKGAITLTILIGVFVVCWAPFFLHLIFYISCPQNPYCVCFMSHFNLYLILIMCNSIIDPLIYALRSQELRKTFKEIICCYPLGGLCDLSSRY
Text: as §1

H2 = molecular target: T22, H2 (Homo sapiens, UniProt P25021); assay: BioPrint panel: H2 (h) (antagonist); type: binding; settings: 1 micromolar, read-out: percentage of inhibition of activity
T22 construct: purchased Eurofins Pharma Discovery Services (KinaseProfiler; Cerep BioPrint panel)
Text: as §1

alpha 2C = molecular target: T23, alpha 2C (Homo sapiens, UniProt P18825); assay: BioPrint panel: alpha 2C (h) (antagonist); type: binding; settings: 1 micromolar, read-out: percentage of inhibition of activity
T23 construct: purchased Eurofins Pharma Discovery Services (KinaseProfiler; Cerep BioPrint panel)
T23 sequence (P18825 whole entry): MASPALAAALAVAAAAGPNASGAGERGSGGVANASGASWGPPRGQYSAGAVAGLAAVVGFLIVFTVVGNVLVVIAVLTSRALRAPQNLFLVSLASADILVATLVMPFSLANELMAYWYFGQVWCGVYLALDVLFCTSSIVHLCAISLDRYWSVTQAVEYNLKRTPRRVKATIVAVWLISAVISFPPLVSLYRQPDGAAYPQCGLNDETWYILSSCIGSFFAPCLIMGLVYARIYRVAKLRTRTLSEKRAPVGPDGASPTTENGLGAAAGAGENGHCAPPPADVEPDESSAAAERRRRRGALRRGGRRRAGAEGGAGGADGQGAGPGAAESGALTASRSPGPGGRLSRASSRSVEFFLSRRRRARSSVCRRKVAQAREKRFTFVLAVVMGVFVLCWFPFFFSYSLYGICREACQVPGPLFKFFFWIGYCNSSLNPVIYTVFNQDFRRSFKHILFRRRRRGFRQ
Text: as §1

MMP-9 = molecular target: T24, MMP-9 (Homo sapiens, UniProt P14780); assay: BioPrint panel: MMP-9 (h); type: biochemical; settings: 1 micromolar, read-out: percentage of inhibition of activity
T24 construct: purchased Eurofins Pharma Discovery Services (KinaseProfiler; Cerep BioPrint panel)
Text: as §1

PPARgamma = molecular target: T25, PPARgamma (Homo sapiens, UniProt P37231); assay: BioPrint panel: PPARgamma (h) (agonist); type: binding; settings: 1 micromolar, read-out: percentage of inhibition of activity
T25 construct: purchased Eurofins Pharma Discovery Services (KinaseProfiler; Cerep BioPrint panel)
T25 sequence (P37231 whole entry): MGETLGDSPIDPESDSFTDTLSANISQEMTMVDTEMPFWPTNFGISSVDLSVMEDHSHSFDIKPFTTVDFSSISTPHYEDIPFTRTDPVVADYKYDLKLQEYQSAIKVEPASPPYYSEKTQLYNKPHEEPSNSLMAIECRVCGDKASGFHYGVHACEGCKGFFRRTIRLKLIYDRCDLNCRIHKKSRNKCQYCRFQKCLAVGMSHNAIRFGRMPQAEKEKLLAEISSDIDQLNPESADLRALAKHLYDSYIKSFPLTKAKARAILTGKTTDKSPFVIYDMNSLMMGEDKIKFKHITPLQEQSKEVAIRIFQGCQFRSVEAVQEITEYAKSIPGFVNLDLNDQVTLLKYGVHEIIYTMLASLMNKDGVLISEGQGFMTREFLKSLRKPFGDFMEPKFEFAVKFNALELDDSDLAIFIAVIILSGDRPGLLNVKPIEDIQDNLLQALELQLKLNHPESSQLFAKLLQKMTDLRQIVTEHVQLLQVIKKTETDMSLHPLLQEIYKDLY
Text: as §1

MCH1 = molecular target: T26, MCH1 (Homo sapiens, UniProt Q99705); assay: BioPrint panel: MCH1 (h) (agonist); type: binding; settings: 1 micromolar, read-out: percentage of inhibition of activity
T26 construct: purchased Eurofins Pharma Discovery Services (KinaseProfiler; Cerep BioPrint panel)
Text: as §1

Syk = Syk (Homo sapiens, UniProt P43405); assay: Enzymatic Syk kinase activity assay; type: biochemical
MMP-2 = molecular target: T27, MMP-2 (Homo sapiens, UniProt P08253); assay: BioPrint panel: MMP-2 (h); type: biochemical; settings: 1 micromolar, read-out: percentage of inhibition of activity
T27 construct: purchased Eurofins Pharma Discovery Services (KinaseProfiler; Cerep BioPrint panel)
Text: as §1

CCR2 = molecular target: T28, CCR2 (Homo sapiens, UniProt P41597); assay: BioPrint panel: CCR2 (h) (agonist); type: binding; settings: 1 micromolar, read-out: percentage of inhibition of activity
T28 construct: purchased Eurofins Pharma Discovery Services (KinaseProfiler; Cerep BioPrint panel)
Text: as §1

ETA = molecular target: T29, ETA (Homo sapiens, UniProt P25101); assay: BioPrint panel: ETA (h) (agonist); type: binding; settings: 1 micromolar, read-out: percentage of inhibition of activity
T29 construct: purchased Eurofins Pharma Discovery Services (KinaseProfiler; Cerep BioPrint panel)
T29 sequence (P25101 21-427): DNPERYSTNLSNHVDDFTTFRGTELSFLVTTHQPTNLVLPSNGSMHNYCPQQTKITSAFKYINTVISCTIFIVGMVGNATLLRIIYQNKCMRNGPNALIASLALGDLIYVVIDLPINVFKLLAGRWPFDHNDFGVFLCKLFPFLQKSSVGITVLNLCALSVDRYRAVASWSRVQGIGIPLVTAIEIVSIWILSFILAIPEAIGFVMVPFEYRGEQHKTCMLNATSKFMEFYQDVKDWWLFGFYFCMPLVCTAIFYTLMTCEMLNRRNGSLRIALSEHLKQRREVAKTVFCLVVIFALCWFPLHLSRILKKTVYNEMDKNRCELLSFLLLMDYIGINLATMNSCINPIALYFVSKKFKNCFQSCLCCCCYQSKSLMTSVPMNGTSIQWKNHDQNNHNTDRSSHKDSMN
Text: as §1

APJ (apelin) = molecular target: T30, APJ (apelin) (Homo sapiens, UniProt P35414); assay: BioPrint panel: APJ (apelin) (h) (agonist); type: binding; settings: 1 micromolar, read-out: percentage of inhibition of activity
T30 construct: purchased Eurofins Pharma Discovery Services (KinaseProfiler; Cerep BioPrint panel)
T30 sequence (P35414 whole entry): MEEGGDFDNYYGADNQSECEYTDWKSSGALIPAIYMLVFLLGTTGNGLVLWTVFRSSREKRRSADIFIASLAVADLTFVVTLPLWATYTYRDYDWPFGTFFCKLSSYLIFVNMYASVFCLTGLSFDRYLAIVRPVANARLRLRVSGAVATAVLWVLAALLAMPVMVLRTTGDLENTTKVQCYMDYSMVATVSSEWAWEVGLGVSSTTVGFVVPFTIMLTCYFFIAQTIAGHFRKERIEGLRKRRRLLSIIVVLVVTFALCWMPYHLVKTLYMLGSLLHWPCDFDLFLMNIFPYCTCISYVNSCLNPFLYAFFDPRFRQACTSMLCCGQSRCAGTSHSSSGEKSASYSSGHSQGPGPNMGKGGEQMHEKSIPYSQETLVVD
Text: as §1

`Cn1cc(-c2cccc(-c3nc(C(=O)NC4C5CC6CC4CC(O)(C6)C5)c(N)nc3N)c2)cn1` (stereo not drawn) [compound 4] showed an inhibition at 1 µM (VPAC1 (VIP1)) of -4.6%, an inhibition at 1 µM (neutral endopeptidase) of 15.6% and an inhibition at 1 µM (alpha 2A) of 6.2%. For the same molecule, the inhibition at 1 µM (alpha 1B) was 2.4%, the inhibition at 1 µM (5-HT1D) was -8.1% and the inhibition at 1 µM (ETB) was -6.7%. The inhibition at 1 µM (EP2) was -23.9%, the “percentage of inhibition of activity” value (ACE) was “INTER” and the inhibition at 1 µM (A1) was -11.2%. The inhibition at 1 µM (UT) was 7.4%, the inhibition at 1 µM (alpha 1A) was 2.8% and the “cytotoxicity in the 3C system” value ([1]; 1 μM, 3C (HuVEC)) was “cytotoxicity”. For the same molecule, the “cytotoxicity in BioMAP activated cellular systems” value ([1]; 3 μM) was “cytotoxic to B cells, fibroblasts and particularly endothelial cells”, the “IL-8 levels in lung fibroblasts (MyoF)” value ([1]; 0.111 and 0.333 μM) was “increased” and the “VCAM-1 expression in endothelial cells (3C)” value ([1]; 0.111 and 0.333 μM) was “reduced”. For the same molecule, the “anti-proliferative activity in BioMAP systems” value ([1]; 0.111 and 0.333 μM) was “anti-proliferative to endothelial cells, T and B cells, smooth muscle cells and fibroblasts”, the “sIL10 levels in the endothelial cell / macrophage system (/Mphg)” value ([1]; 0.111 and 0.333 μM) was “decreased” and the “sIL17A, sIL17F and sIL6 levels in the B / PMBC cell system (BT)” value ([1]; 0.111 and 0.333 μM) was “decreased”. The “endpoints inhibited out of 32 measured in the NHBE (BE3C) and NHBE / fibroblasts (B4FT) systems” value ([1]; 0.111–0.333 μM, tPA and Eotaxin 3) was 2, the inhibition at 1 µM (GABAB(1b)) was 15.4% and the inhibition at 1 µM (PDE5; 1 μM, read-out: inhibition of PDE5) was 61%. The inhibition at 1 µM (PDE5; 1 micromolar, PDE5 (h) (non-selective), read-out: percentage of inhibition of activity) was 61.5%, the IC50 (PDE5; dose response, duplicate, read-out: Inhibition of indicated activity (IC50, μM): PDE5) was 0.92 µM and the inhibition at 1 µM (IRK (InsR)) was 5%. The inhibition at 1 µM (D3) was -4.2%, the inhibition at 1 µM (caspase-3) was 3.9% and the inhibition at 1 µM (inducible NOS) was -8.8%. It also gave an inhibition at 1 µM (CCK1 (CCKA)) of -0.1%, an inhibition at 1 µM (p38alpha kinase) of 1.5% and an inhibition at 1 µM (N neuronal a4 b2) of -13.9%. The inhibition at 1 µM (MC4) was -5.1%, the inhibition at 1 µM (H2) was 0% and the inhibition at 1 µM (alpha 2C) was -14.1%. It also gave an inhibition at 1 µM (MMP-9) of -4.4%, an inhibition at 1 µM (PPARgamma) of 3.2% and an inhibition at 1 µM (MCH1) of 34.6%. The IC50 (Syk; geometric mean, read-out: Activity in reference biochemical assay (IC50, μM) (95% CI) Syk) was 11.8 µM, the IC50 (Syk; individual values, read-out: Biochemical activity (IC50, mM) (Syk)) was 12.2 µM and 11.4 µM and the inhibition at 1 µM (MMP-2) was 13.6%. The inhibition at 1 µM (CCR2) was 2.6%, the inhibition at 1 µM (ETA) was -12.5% and the inhibition at 1 µM (APJ (apelin)) was 0.8%.

— publication PMC5761851, “Application of a phenotypic drug discovery strategy to identify biological and chemical starting points for inhibition of TSLP production in lung epithelial cells” (PLoS ONE, 2018)
